Laboratory results published in paper PMC6900016, “Synthesis of Indomorphan Pseudo‐Natural Product Inhibitors of Glucose Transporters GLUT‐1 and ‐3” (Angewandte Chemie (International Ed. in English), 2019).

What was measured:
Test in all cases: cells
Parameters in all cases: Cell growth inhibition, sulforhodamine B total protein staining
5637 = conditions: 72 h growth; read-out: Cell growth inhibition IC50/µM
Protocol: (§1) Cell panel profiling A panel of 94 cell lines was exposed to Glupin for 72 h to assess the influence on cell growth (Oncolead, Germany). Cell growth was determined using sulforhodamine B assay. Measurements were performed using a total protein staining protocol. Briefly, after treatement cells were fixed addition of 10% TCA (for adherent growing cells) or 50% TCA (for semi-adherent growing cells or cells growing in suspension). After an incubation at 4°C for 1 h, plates were washed twice with 400 μl of deionized water and dried. Cells were then stained with 100 μl of 0.04% wt/v sulforhodamine B. Plates were incubated at room temperature for at least 30 min and washed six times with 1% acetic acid to remove unbound stain. […] This effect was much stronger at a physiological glucose concentration (5 mM; Figure 5 b,c). […] IC50 values lower than 300 nM were obtained for more than 20 cell lines, whereas 24 cell lines were not affected by the compound, among them the peripheral blood mononuclear control cells (PBMCs). Sensitivity to Glupin was detected across various tissue types (Table S6).

786O = conditions: Homo sapiens, 786-0; 72 h growth; read-out: Cell growth inhibition IC50/µM
Protocol: as §1

A375 = conditions: Homo sapiens, A-375; 72 h growth; read-out: Cell growth inhibition IC50/µM
Protocol: as §1

A431 = conditions: Homo sapiens, A-431; 72 h growth; read-out: Cell growth inhibition IC50/µM
Protocol: as §1

BT20 = conditions: Homo sapiens, BT-20; 72 h growth; read-out: Cell growth inhibition IC50/µM
Protocol: as §1

C33A = conditions: Homo sapiens, C-33-A; 72 h growth; read-out: Cell growth inhibition IC50/µM
Protocol: as §1

CACO2 = conditions: Homo sapiens, Caco-2; 72 h growth; read-out: Cell growth inhibition IC50/µM
Protocol: as §1

CASKI = conditions: Homo sapiens, Ca-Ski; 72 h growth; read-out: Cell growth inhibition IC50/µM
Protocol: as §1

HCT116 = conditions: Homo sapiens, HCT-116; 72 h growth; read-out: Cell growth inhibition IC50/µM
Protocol: as §1

HEK293 = conditions: Homo sapiens, HEK293; 72 h growth; read-out: Cell growth inhibition IC50/µM
Protocol: as §1

HEPG2 = conditions: Homo sapiens, HepG2; 72 h growth; read-out: Cell growth inhibition IC50/µM
Protocol: as §1

HT29 = conditions: Homo sapiens, HT-29; 72 h growth; read-out: Cell growth inhibition IC50/µM
Protocol: as §1

L363 = conditions: Homo sapiens, L-363; 72 h growth; read-out: Cell growth inhibition IC50/µM
Protocol: as §1

LOVO = conditions: Homo sapiens, LoVo; 72 h growth; read-out: Cell growth inhibition IC50/µM
Protocol: as §1

MDAMB468 = conditions: Homo sapiens, MDA-MB-468; 72 h growth; read-out: Cell growth inhibition IC50/µM
Protocol: as §1

MIAPACA2 = conditions: Homo sapiens, MIA PaCa-2; 72 h growth; read-out: Cell growth inhibition IC50/µM
Protocol: as §1

PANC1 = conditions: Homo sapiens, PANC-1; 72 h growth; read-out: Cell growth inhibition IC50/µM
Protocol: as §1

PC3 = conditions: Homo sapiens, PC-3; 72 h growth; read-out: Cell growth inhibition IC50/µM
Protocol: as §1

SF295 = conditions: Homo sapiens, SF-295; 72 h growth; read-out: Cell growth inhibition IC50/µM
Protocol: as §1

SKLMS1 = conditions: Homo sapiens, SK-LMS-1; 72 h growth; read-out: Cell growth inhibition IC50/µM
Protocol: as §1

TE671 = conditions: Homo sapiens, TE-671; 72 h growth; read-out: Cell growth inhibition IC50/µM
Protocol: as §1

U2OS = conditions: Homo sapiens, U2OS; 72 h growth; read-out: Cell growth inhibition IC50/µM
Protocol: as §1

UMUC3 = conditions: Homo sapiens, UMUC3; 72 h growth; read-out: Cell growth inhibition IC50/µM
Protocol: as §1

IC50 (A375): 0.659 µM | IC50 (A431): 0.23 µM | IC50 (BT20): > 30 µM | IC50 (CACO2): 3.51 µM | IC50 (HCT116): 1.47 µM | IC50 (HEPG2): > 30 µM | IC50 (HT29): 3.35 µM | IC50 (LOVO): 5.41 µM | IC50 (MDAMB468): 4.32 µM | IC50 (MIAPACA2): 0.061 µM | IC50 (PANC1): 0.706 µM | IC50 (PC3): 0.827 µM | IC50 (SKLMS1): 0.699 µM | IC50 (U2OS): 0.502 µM
Compound: CCOC(=O)Cn1c2c(c3ccccc31)C[C@@H]1C[C@H]2C(OC)CN1C(=O)c1cccnc1SC (single isomer, unassigned; (+)) [(+)-5a, Glupin]
IC50 5637: 0.114 µM | IC50 (786O): 0.274 µM | IC50 (C33A): 1.5 µM | IC50 (CASKI): 0.433 µM | IC50 (HEK293): 0.463 µM | IC50 (L363): 2.87 µM | IC50 (SF295): 0.427 µM | IC50 (TE671): 0.299 µM | IC50 (UMUC3): 0.032 µM
